Source: paper PMC7023430, “4-Aminobenzoic Acid Derivatives: Converting Folate Precursor to Antimicrobial and Cytotoxic Agents” (Biomolecules, 2019)
Values after ≈ are worked out from the molar mass of the structure shown. Where two headings read alike, the source gives them in different places.

Assays:
[1] = test system: Staphylococcus aureus ATCC 29213, CCM 4223; test: Antibacterial microdilution broth method, S. aureus; type: cell-based
[2] = test system: methicillin-resistant Staphylococcus aureus ATCC 43300, CCM 4750 (MRSA); test: Antibacterial microdilution broth method, MRSA; type: cell-based; conditions: Staphylococcus aureus
[3] = test system: Staphylococcus epidermidis H 6966/08; test: Antibacterial microdilution broth method, S. epidermidis; type: cell-based; conditions: Staphylococcus epidermidis, H6966/08, S. epidermidis
[4] = test system: Enterococcus faecalis ATCC 29212, CCM 4224; test: Antibacterial microdilution broth method, E. faecalis; type: cell-based; conditions: Enterococcus faecalis
[5] = test system: Escherichia coli ATCC 25922, CCM 3954; test: Antibacterial microdilution broth method, E. coli; type: cell-based; conditions: Escherichia coli
[6] = test system: Pseudomonas aeruginosa ATCC 27853, CCM 3955; test: Antibacterial microdilution broth method, P. aeruginosa; type: cell-based; conditions: Pseudomonas aeruginosa
[7] = test system: Mycobacterium tuberculosis H37Rv (331/88); test: Antimycobacterial micromethod in Šula's medium, M. tuberculosis; type: cell-based
[8] = test system: Mycobacterium avium 330/88; test: Antimycobacterial micromethod in Šula's medium, M. avium; type: cell-based
[9] = test system: Mycobacterium kansasii 235/80; test: Antimycobacterial micromethod in Šula's medium, M. kansasii 235/80; type: cell-based
[10] = test system: M. kansasii 6509/96 (clinical isolate); test: Antimycobacterial micromethod in Šula's medium, M. kansasii 6509/96; type: cell-based; conditions: Mycobacterium kansasii
[11] = test system: Candida albicans ATCC 44859; test: Antifungal microdilution broth method, C. albicans; type: cell-based
Description: (§1) The antifungal properties were evaluated against five yeast strains, namely: Candida albicans ATCC 44859, Candida tropicalis 156, Candida krusei […], Candida glabrata 20/I, Trichosporon […] 1188 and three strains of filamentous fungi: Aspergillus fumigatus 231, Lichtheimia corymbifera 272, and Trichophyton interdigitale 445. A microdilution broth method was performed according to EUCAST II, III instructions with slight modifications. Briefly, tested compounds were dissolved in DMSO and diluted in a twofold manner with RPMI-1640 medium with L-glutamine, supplemented with 2% glucose (w/v) and buffered to pH 7.0 with 3 morpholinopropane-1-sulfonic acid (all components were purchased from Sigma-Aldrich, USA). […] Positive controls consisted of test microbe solely, while negative controls consisted of medium and DMSO. Internal quality control was included too. Visual inspection was used for MIC endpoints evaluation. The experiments were conducted in duplicates. For the results to be valid, the difference in MIC determined from two parallel measurements must not be greater than one step on the dilution scale. PABA and triazole antimycotic drug fluconazole were involved as the reference compounds.

Candida tropicalis 156 = test: Antifungal microdilution broth method, C. tropicalis; type: cell-based
Description: as §1

Candida krusei E28 = test: Antifungal microdilution broth method, C. krusei; type: cell-based; conditions: Pichia kudriavzevii
Description: as §1

Candida glabrata 20/I = test: Antifungal microdilution broth method, C. glabrata; type: cell-based; conditions: Nakaseomyces glabratus
Description: as §1

Trichosporon asahii 1188 = test: Antifungal microdilution broth method, T. asahii; type: cell-based
Description: as §1

[12] = test system: Aspergillus fumigatus 231; test: Antifungal microdilution broth method, A. fumigatus; type: cell-based
Description: as §1

[13] = test system: Lichtheimia corymbifera 272; test: Antifungal microdilution broth method, L. corymbifera; type: cell-based
Description: as §1

[14] = test system: Trichophyton interdigitale 445; test: Antifungal microdilution broth method, T. interdigitale; type: cell-based
Description: as §1

[15] = test system: four Gram-positive and four Gram-negative strains; test: Antibacterial activity; type: cell-based; conditions: time not stated
eight fungal strains = test: Antifungal activity; type: cell-based; conditions: statement over the fungal panel; time not stated
Description: as §1

[16] = test system: ESBL-positive Klebsiella pneumoniae J 14368/08
[17] = test system: Klebsiella pneumoniae D 11750/08; test: Antibacterial microdilution broth method, K. pneumoniae; conditions: K. pneumoniae D 11750/08; for MIC KP 24 h: 24 h incubation; for MIC KP 48 h: 48 h incubation
[18] = test system: Mtb. 331/88 and three non-tuberculous mycobacterial strains; test: Antimycobacterial activity; type: cell-based; conditions: statement over four mycobacterial strains; time not stated
[19] = 24 h incubation, read-out: MIC SA 24 h
[20] = 48 h incubation, read-out: MIC SA 48 h
[21] = 24 h incubation, read-out: MIC MRSA 24 h
[22] = 48 h incubation, read-out: MIC MRSA 48 h
[23] = 24 h incubation, read-out: MIC SE 24 h
[24] = 48 h incubation, read-out: MIC SE 48 h
[25] = 24 h incubation, read-out: MIC EF 24 h
[26] = 48 h incubation, read-out: MIC EF 48 h
[27] = 24 h incubation, read-out: MIC EC 24 h
[28] = 48 h incubation, read-out: MIC EC 48 h
[29] = P. aeruginosa, 24 h incubation, read-out: MIC PA 24 h
[30] = P. aeruginosa, 48 h incubation, read-out: MIC PA 48 h
[31] = 336 h, 14 days incubation at 37 °C, read-out: MIC Mtb. 331/88 14 d
[32] = 504 h, 21 days incubation at 37 °C, read-out: MIC Mtb. 331/88 21 d
[33] = 330/88, 336 h, 14 days incubation at 37 °C, read-out: MIC M. avium 330/88 14 d
[34] = 330/88, 504 h, 21 days incubation at 37 °C, read-out: MIC M. avium 330/88 21 d
[35] = 235/80, 168 h, 7 days incubation at 37 °C, read-out: MIC M. kansasii 235/80 7 d
[36] = 235/80, 336 h, 14 days incubation at 37 °C, read-out: MIC M. kansasii 235/80 14 d
[37] = 235/80, 504 h, 21 days incubation at 37 °C, read-out: MIC M. kansasii 235/80 21 d
[38] = 168 h, 7 days incubation at 37 °C, read-out: MIC M. kansasii 6509/96 7 d
[39] = 336 h, 14 days incubation at 37 °C, read-out: MIC M. kansasii 6509/96 14 d
[40] = 504 h, 21 days incubation at 37 °C, read-out: MIC M. kansasii 6509/96 21 d
[41] = ATCC44859, 24 h, read-out: MIC CA 24 h
[42] = ATCC44859, 48 h, read-out: MIC CA 48 h

Structure (SMILES): O=C(O)c1ccc(N=Cc2cc(O)ccc2O)cc1 [1i, 4-[(2,5-Dihydroxybenzylidene)amino]benzoic acid]
- MIC [1, 19]: 500 µM (≈ 129 µg/mL)
- MIC [1, 20]: 500 µM (≈ 129 µg/mL)
- MIC [2, 21]: 250 µM (≈ 64.3 µg/mL)
- MIC [2, 22]: 250 µM (≈ 64.3 µg/mL)
- MIC [3, 23]: 250 µM (≈ 64.3 µg/mL)
- MIC [3, 24]: 250 µM (≈ 64.3 µg/mL)
- MIC [4, 25]: 500 µM (≈ 129 µg/mL)
- MIC [4, 26]: 500 µM (≈ 129 µg/mL)
- MIC [5, 27]: > 500 µM
- MIC [5, 28]: > 500 µM
- MIC [6, 29]: 500 µM (≈ 129 µg/mL)
- MIC [6, 30]: 500 µM (≈ 129 µg/mL)
- MIC ([6]; time not stated, read-out: MIC, P. aeruginosa): 500 µM (≈ 129 µg/mL)
- MIC [7, 31]: 500 µM (≈ 129 µg/mL)
- MIC [7, 32]: 1000 µM (≈ 257 µg/mL)
- MIC [8, 33]: 1000 µM (≈ 257 µg/mL)
- MIC [8, 34]: > 1000 µM
- MIC [9, 35]: 500 µM (≈ 129 µg/mL)
- MIC [9, 36]: 500 µM (≈ 129 µg/mL)
- MIC [9, 37]: 1000 µM (≈ 257 µg/mL)
- MIC [10, 38]: 500 µM (≈ 129 µg/mL)
- MIC [10, 39]: 1000 µM (≈ 257 µg/mL)
- MIC [10, 40]: 1000 µM (≈ 257 µg/mL)
- MIC [11, 41]: 500 µM (≈ 129 µg/mL)
- MIC [11, 42]: 500 µM (≈ 129 µg/mL)
- MIC (Candida tropicalis 156; 24 h, read-out: MIC CT 24 h): > 500 µM
- MIC (Candida tropicalis 156; 48 h, read-out: MIC CT 48 h): > 500 µM
- MIC (Candida krusei E28; 24 h, read-out: MIC CK 24 h): > 500 µM
- MIC (Candida krusei E28; 48 h, read-out: MIC CK 48 h): > 500 µM
- MIC (Candida glabrata 20/I; 24 h, read-out: MIC CG 24 h): 250 µM (≈ 64.3 µg/mL)
- MIC (Candida glabrata 20/I; 48 h, read-out: MIC CG 48 h): 250 µM (≈ 64.3 µg/mL)
- MIC (Trichosporon asahii 1188; 24 h, read-out: MIC TA 24 h): > 500 µM
- MIC (Trichosporon asahii 1188; 48 h, read-out: MIC TA 48 h): > 500 µM
- MIC ([12]; 24 h, read-out: MIC AF 24 h): > 500 µM
- MIC ([12]; 48 h, read-out: MIC AF 48 h): > 500 µM
- MIC ([13]; 24 h, read-out: MIC LC 24 h): > 500 µM
- MIC ([13]; 48 h, read-out: MIC LC 48 h): > 500 µM
- MIC ([14]; 72 h, read-out: MIC TI 72 h): > 500 µM
- MIC ([14]; 120 h, read-out: MIC TI 120 h): > 500 µM
- MIC ([15]; Staphylococcus aureus, MRSA, read-out: MIC, multiple Gram-positive strains including MRSA): ≥ 250 µM
- MIC (eight fungal strains): ≥ 250 µM
- MIC KP-E 24 h [16]: 500 µM (≈ 129 µg/mL)
- MIC KP-E 48 h [16]: 500 µM (≈ 129 µg/mL)
- MIC KP 24 h [17]: 500 µM (≈ 129 µg/mL)
- MIC KP 48 h [17]: 500 µM (≈ 129 µg/mL)

Structure (SMILES): COc1ccccc1C=Nc1ccc(C(=O)O)cc1 [1s, 4-[(2-Methoxybenzylidene)amino]benzoic acid]
- MIC [1, 19]: > 500 µM
- MIC [1, 20]: > 500 µM
- MIC [2, 21]: > 500 µM
- MIC [2, 22]: > 500 µM
- MIC [3, 23]: > 500 µM
- MIC [3, 24]: > 500 µM
- MIC [4, 25]: > 500 µM
- MIC [4, 26]: > 500 µM
- MIC [5, 27]: > 500 µM
- MIC [5, 28]: > 500 µM
- MIC [6, 29]: > 500 µM
- MIC [6, 30]: > 500 µM
- MIC [7, 31]: 1000 µM (≈ 255 µg/mL)
- MIC [7, 32]: 1000 µM (≈ 255 µg/mL)
- MIC [8, 33]: > 1000 µM
- MIC [8, 34]: > 1000 µM
- MIC [9, 35]: 1000 µM (≈ 255 µg/mL)
- MIC [9, 36]: 1000 µM (≈ 255 µg/mL)
- MIC [9, 37]: > 1000 µM
- MIC [10, 38]: 1000 µM (≈ 255 µg/mL)
- MIC [10, 39]: 1000 µM (≈ 255 µg/mL)
- MIC [10, 40]: 1000 µM (≈ 255 µg/mL)
- MIC [11, 41]: > 500 µM
- MIC [11, 42]: > 500 µM
- MIC (Candida tropicalis 156; 24 h, read-out: MIC CT 24 h): > 500 µM
- MIC (Candida tropicalis 156; 48 h, read-out: MIC CT 48 h): > 500 µM
- MIC (Candida krusei E28; 24 h, read-out: MIC CK 24 h): > 500 µM
- MIC (Candida krusei E28; 48 h, read-out: MIC CK 48 h): > 500 µM
- MIC (Candida glabrata 20/I; 24 h, read-out: MIC CG 24 h): > 500 µM
- MIC (Candida glabrata 20/I; 48 h, read-out: MIC CG 48 h): > 500 µM
- MIC (Trichosporon asahii 1188; 24 h, read-out: MIC TA 24 h): > 500 µM
- MIC (Trichosporon asahii 1188; 48 h, read-out: MIC TA 48 h): > 500 µM
- MIC ([12]; 24 h, read-out: MIC AF 24 h): > 500 µM
- MIC ([12]; 48 h, read-out: MIC AF 48 h): > 500 µM
- MIC ([13]; 24 h, read-out: MIC LC 24 h): > 500 µM
- MIC ([13]; 48 h, read-out: MIC LC 48 h): > 500 µM
- MIC ([14]; 72 h, read-out: MIC TI 72 h): > 500 µM
- MIC ([14]; 120 h, read-out: MIC TI 120 h): > 500 µM
- MIC, antibacterial activity ([15]; statement over the bacterial panel): avoided any antibacterial action
- MIC, antimycobacterial activity [18]: only negligible antimycobacterial activity
- MIC, antifungal activity (eight fungal strains): no antimycotic potency
- MIC KP-E 24 h [16]: >500 µM
- MIC KP-E 48 h [16]: >500 µM
- MIC KP 24 h [17]: >500 µM
- MIC KP 48 h [17]: >500 µM
